Source: US8425925B2, “Pesticidal tag” (priority 2007, dated 2013)
Where two headings read alike, the source gives them in different places.

How the values were obtained:
[1] = tested on: pyrethroid-resistant (PY-Resistant) horn fly (Haematobia irritans irritans) strain; format: in vivo
Protocol: (§1) A comparison of ivermectin formulations is made to determine their toxicity to horn fly (Haematobia irritans irritans) strains. Three formulations are tested: ivermectin alone, ivermectin formulated with epoxidized soybean oil (ESO), and ivermectin formulated with piperonyl butoxide (PBO). Both pyrethroid-resistant (PY-Resistant) and pyrethroid-susceptible (PY-Susceptible) horn fly strains are tested. […] See D C Sheppard & N C Hinkle, “A field procedure using disposable materials to evaluate horn fly insecticide resistance,” J. Agric. Entomol. 4:87-89 (1987).
(§2) Table 1 presents the contact toxicity results in units of μg/cm^2, computed using Log-Probit Analysis. See, e.g., V. K. Borooah, Logit and Probit (2002) (Sage Publications, Thousand Oaks, Calif., USA).
(§3) Further tests, similar to those of the Ivermectin tests described above, were performed using Abamectin compositions.

[2] = tested on: pyrethroid-susceptible (PY-Susceptible) horn fly (Haematobia irritans irritans) strain; format: in vivo
Protocol: as §1, §2, §3

[3] = 4-hour exposure, Log-Probit Analysis
[4] = PY-Susceptible, 4-hour exposure, Log-Probit Analysis

**Q.** Which “Lethal Concentration LC50” value [1, 3] does the source give for Ivermectin here?
**A.** 93.8 μg/cm^2

**Q.** What about the “Lethal Concentration LC90” value [1, 3] of the same substance?
**A.** 478.0 μg/cm^2

**Q.** What about the “Lethal Concentration LC50” value [2, 4] of the same substance?
**A.** 165.6 μg/cm^2

**Q.** And the “Lethal Concentration LC90” value [2, 4]?
**A.** 418.3 μg/cm^2

**Q.** How did the “Lethal Concentrations (cell spanning LC50 and LC90)” value ([1]; 2 hour contact) turn out when Abamectin was run?
**A.** no mortality

**Q.** And the “Lethal Concentrations LC50” value ([1]; 4 hour contact)?
**A.** 138.5 microgram/sq. cm

**Q.** What about the “Lethal Concentrations LC90” value ([1]; 4 hour contact) of the same substance?
**A.** 1,089 microgram/sq. cm

**Q.** What about the “Lethal Concentrations LC50” value ([1]; 8 hour contact) of the same substance?
**A.** 1.19 microgram/sq. cm

**Q.** And the “Lethal Concentrations LC90” value ([1]; 8 hour contact)?
**A.** 7.60 microgram/sq. cm

**Q.** What about the “PY-Susceptible versus PY-Resitant RR50 (resistance ratio)” value ([2]; 8 hour contact, LC50 of PY-susceptible divided by LC50 of PY-resistant horn flies) of the same substance?
**A.** 31.64

**Q.** And the “PY-Susceptible versus PY-Resitant RR90 (resistance ratio)” value ([2]; 8 hour contact, LC90 of PY-susceptible divided by LC90 of PY-resistant horn flies)?
**A.** 23.05

**Q.** And the “Lethal Concentrations (cell spanning LC50 and LC90)” value ([2]; PY-Susceptible, 2 hour contact)?
**A.** no mortality

**Q.** What about the “Lethal Concentrations (cell spanning LC50 and LC90)” value ([2]; PY-Susceptible, 4 hour contact) of the same substance?
**A.** no mortality

**Q.** And the “Lethal Concentrations LC50” value ([2]; PY-Susceptible, 8 hour contact)?
**A.** 37.65 microgram/sq. cm

**Q.** And the “Lethal Concentrations LC90” value ([2]; PY-Susceptible, 8 hour contact)?
**A.** 175.16 microgram/sq. cm
